Source: patent publication US20120251492A1, “TRITERPENE DERIVATIVE AND AGENT FOR PREVENTING OR TREATING CHRONIC HEPATITIS C” (MEIJI SEIKA PHARMA CO., LTD., priority 2009, published 2012)
Where two headings read alike, the source gives them in different places.

How the values were obtained:
[1] = system: HCV (Con1 Strain) replicon; test: microbe, parasite or virus in culture; type: cell-based, hepatitis C virus (HCV) Con1 strain, in Huh7 cells; conditions: read-out: IC50 Value (50% growth inhibitory concentration)
Excerpt: The compounds represented by the formula (I) were subjected to an HCV replicon assay and a cytotoxicity test.
In order to quantify the degree of HCV virus proliferation, a material was constructed by introducing a luciferase gene as a reporter gene into the genomic gene sequence of HCV Cont strain. The luciferase gene was introduced in the form of fusion with a neomycin-resistant gene, immediately after the IRES (Internal Ribosome Entry Site) of the HCV gene according to the method of Krieger et al., (J. Virol. 75: 4614 (2001)). The constructed RNA was introduced into Huh7 cells by electroporation, and isolated as G418 resistant clone.
The HCV replicon cells comprising the luciferase gene and the neomycin resistance gene were suspended in a culture liquid [D-MEM (SIGMA, D6046) containing 10% of fetal bovine serum (EQUITECH-BIO, INC.)], and seeded onto 96-well plates at 5000 to 8100 cells/well. Test compounds were added at various concentrations, and the cells were cultured under 5% CO2 at 37° C. for 3 days. For adding the test compounds, solutions of the test compounds dissolved in dimethyl sulfoxide (DMSO) were used, and diluted with the culture liquid to appropriate concentrations before use. The experiment was conducted with the final concentrations of DMSO used for dissolving the test compounds being 0.4% during the culturing of the replicon cells. To wells to which no test compound was added, DMSO was added with a final concentration of 0.4%.
Assay plates were prepared for two systems; one of the assays was conducted on a white plate, and the other was conducted on a clear plate. After the culturing for treatments with the test compounds was completed, the white plate was subjected to chemiluminescence measurement by using a Steady-Glo Luciferase Assay System (Promega, E2520) in order to detect effects on HCV replicon proliferation. A EnVision multilabel counter (PerkinElmer 2102) was used for the chemiluminescence measurement. While the value obtained when no test compound was added was taken as 0% inhibition, the inhibitory ratios by the treatments with the agents were calculated.
Regarding the HCV replicon assay, IC50s (50% growth inhibitory concentrations) of the agents were calculated, with the value obtained when no agent was added being taken as 0% inhibition.

[2] = Pharmacokinetics study in mice; type: in vivo; conditions: Balb/c mice, male, oral 20 mg/kg suspended in olive oil, LC-MS/MS; for AUC / Cmax / half-life: mouse, plasma; for AUC: read-out: AUC (area under the plasma drug concentration-time curve); for Cmax: read-out: Cmax (maximum plasma concentration); for half-life: read-out: t1/2 (plasma half-life) (converted)
Method: Balb/c mice (male, 7 to 8-week old) were used (3 or more mice per group). Each test compound suspended in olive oil was orally administered at 20 mg/kg, and blood was collected from the jugular vein after 2, 6, and 24 hours, or after 2, 4, 6, 8, 24, and 48 hours. The plasma drug concentration was measured by using a liquid chromatograph/mass spectrometry/mass spectrometry (LC-MS/MS). In addition, pharmacokinetics parameters were obtained from change in the obtained plasma concentration.

[3] = Hepatitis C virus, Huh-7, 72 h, HCV replicon cells (Huh7) with luciferase gene, cultured 3 days with test compound, 0.4% DMSO

Row | SMILES | IC50 [1, 3] [µM] | AUC [2] [ng·h/mL] | Cmax [2] [ng/mL] | half-life [2] [h] | also measured
1 | CC1(C)C[C@@H](OCc2ccc(C(=O)O)cc2)[C@]2(C)CC[C@]3(C)C(=CCC4[C@@]5(C)CC[C@H](O)[C@](C)(CO)C5CC[C@]43C)[C@@H]2C1 (stereo partly drawn) [Compound 1, 22β-(4-carboxybenzyloxy)olean-12-ene-3β,24-diol] | 13.5 |  |  |  | 
2 | C#CCO[C@@H]1CC(C)(C)C[C@H]2C3=CCC4[C@@]5(C)CC[C@H](O)[C@](C)(CO)C5CC[C@@]4(C)[C@]3(C)CC[C@@]12C (stereo partly drawn) [Compound 2, 22β-(2-propynyloxy)olean-12-ene-3β,24-diol] | 5.73 | 44700 ± 16300 | 2800 ± 1000 | 10 ± 1.2 | 
3 | CC1(C)C[C@@H](OCc2ccc(CO)cc2)[C@]2(C)CC[C@]3(C)C(=CCC4[C@@]5(C)CC[C@H](O)[C@](C)(CO)C5CC[C@]43C)[C@@H]2C1 (stereo partly drawn) [Compound 3, 22β-(4-hydroxymethylbenzyloxy)olean-12-ene-3β,24-diol] |  |  |  |  | IC50 ([1]; Hepatitis C virus, Huh-7, 72 h): 1.56 µM
4 | CC1(C)C[C@@H](OCc2ccc(C=O)cc2)[C@]2(C)CC[C@]3(C)C(=CCC4[C@@]5(C)CC[C@H](O)[C@](C)(CO)C5CC[C@]43C)[C@@H]2C1 (stereo partly drawn) [Compound 4, 22β-(4-formylbenzyloxy)olean-12-ene-3β,24-diol] | 3.59 |  |  |  | 
5 | CC1(C)C[C@@H](OCCCO)[C@]2(C)CC[C@]3(C)C(=CCC4[C@@]5(C)CC[C@H](O)[C@](C)(CO)C5CC[C@]43C)[C@@H]2C1 (stereo partly drawn) [Compound 7, 22β-(3-hydroxypropoxy)olean-12-ene-3β,24-diol] | 5.32 |  |  |  | 
6 | CC1(C)C[C@@H](OCCCOc2ccc(C(=O)O)cc2)[C@]2(C)CC[C@]3(C)C(=CCC4[C@@]5(C)CC[C@H](O)[C@](C)(CO)C5CC[C@]43C)[C@@H]2C1 (stereo partly drawn) [Compound 8, 22β-(3-(4-carboxyphenyl)oxypropoxy)olean-12-ene-3β,24-diol] | 6.99 |  |  |  | 
7 | CC1(C)C[C@@H](OCc2ccc(CN3CCOCC3)cc2)[C@]2(C)CC[C@]3(C)C(=CCC4[C@@]5(C)CC[C@H](O)[C@](C)(CO)C5CC[C@]43C)[C@@H]2C1 (stereo partly drawn) [Compound 9, 22β-(4-(4-morpholylmethyl)benzyloxy)olean-12-ene-3β,24-diol] | 9.13 |  |  |  | 
8 | CN(C)Cc1ccc(CO[C@@H]2CC(C)(C)C[C@H]3C4=CCC5[C@@]6(C)CC[C@H](O)[C@](C)(CO)C6CC[C@@]5(C)[C@]4(C)CC[C@@]23C)cc1 (stereo partly drawn) [Compound 10, 22β-(4-dimethylaminomethylbenzyloxy)olean-12-ene-3β,24-diol] | 3.68 |  |  |  | 
9 | CC1(C)C[C@@H](OCc2ccc(CNc3ccccc3)cc2)[C@]2(C)CC[C@]3(C)C(=CCC4[C@@]5(C)CC[C@H](O)[C@](C)(CO)C5CC[C@]43C)[C@@H]2C1 (stereo partly drawn) [Compound 11, 22β-(4-phenylaminomethylbenzyloxy)olean-12-ene-3β,24-diol] | 13 |  |  |  | 
10 | CC1(C)C[C@@H](OCc2ccccc2)[C@]2(C)CC[C@]3(C)C(=CCC4[C@@]5(C)CC[C@H](O)[C@](C)(C(=O)O)C5CC[C@]43C)[C@@H]2C1 (stereo partly drawn) [Compound 12, 22β-benzyloxyolean-12-ene-3β-hydroxy-24-oic acid] | 5.54 | 74700 ± 11000 | 4800 ± 1100 | 11.9 ± 2.7 | 
11 | C=CCO[C@@H]1CC(C)(C)C[C@H]2C3=CCC4[C@@]5(C)CC[C@H](O)[C@](C)(C(=O)O)C5CC[C@@]4(C)[C@]3(C)CC[C@@]12C (stereo partly drawn) [Compound 13, 22β-allyloxyolean-12-ene-3β-hydroxy-24-oic acid] | 7.05 | 74900 ± 16300 | 4800 ± 1500 | 13 ± 5.5 | 
12 | CO[C@@H]1CC(C)(C)CC2C3=CCC4[C@@]5(C)CC[C@H](O)[C@](C)(C(=O)O)C5CC[C@@]4(C)[C@]3(C)CC[C@]21C (stereo partly drawn) [Compound 14, 3β-hydroxy-22β-methoxyolean-12-en-24-oic acid] | 5.57 | 81100 ± 18300 | 4800 ± 1100 | 13.9 ± 1 | 
13 | CO[C@@H]1CC(C)(C)C[C@H]2C3=CC[C@@H]4[C@@]5(C)CC[C@H](O)[C@](C)(CO)[C@@H]5CC[C@@]4(C)[C@]3(C)CC[C@@]12C [Compound 17, 22β-methoxyolean-12-ene-3β,24-diol, reference compound] |  |  |  |  | AUC (area under the plasma drug concentration-time curve) [2]: 35600 ± 9700 ng·h/mL; Cmax (maximum plasma concentration) [2]: 2600 ± 700 ng/mL; t1/2 (plasma half-life) [2]: 7.4 ± 0.4 h; IC50 ([1]; HCV replicon cells (Huh7) with luciferase gene, cultured 3 days with test compound, 0.4% DMSO): > 20 µM
